Test results from ChEMBL document CHEMBL3045118, “Synthesis and biological activities of new Mannich bases of chlorokojic acid derivatives” (Med Chem Res, 2011).
In brackets after ≈: the same amount, converted by molar mass. Activity calls are given as the source filed them. No cut-off for these calls is given here.

Legend:
Human respirovirus 3 [1] = assay: Antiviral activity against Human parainfluenza virus 3 infected African green monkey Vero cells assessed as concentration required to cause minimum inhibition of virus-induced cytopathic effect; assay type: functional
Human respirovirus 3 [2] = assay: Antiviral activity against Human parainfluenza virus 3 infected African green monkey Vero cells assessed as concentration required to cause maximum inhibition of virus-induced cytopathic effect; assay type: functional
[3] = Cytotoxicity against Chlorocebus aethiops (African green monkey) Vero cells assessed as maximum non-toxic concentration; assay type: cell-based; conditions: chlorocebus sabaeus, read-out: MNCC
Human alphaherpesvirus 1 [4] = assay: Antiviral activity against Human herpesvirus 1 infected bovine MDBK cells assessed as concentration required to cause minimum inhibition of virus-induced cytopathic effect; assay type: functional
Human alphaherpesvirus 1 [5] = assay: Antiviral activity against Human herpesvirus 1 infected bovine MDBK cells assessed as concentration required to cause maximum inhibition of virus-induced cytopathic effect; assay type: functional
[6] = Cytotoxicity against Bos taurus (bovine) MDBK cells assessed as maximum non-toxic concentration; assay type: cell-based; conditions: cattle, read-out: MNCC
Candida albicans = assay: Antifungal activity against Candida albicans ATCC 10231 by microdilution method; assay type: functional
Candida parapsilosis = assay: Antifungal activity against Candida parapsilosis ATCC 22019 by microdilution method; assay type: functional
Bacillus subtilis [7] = assay: Antibacterial activity against ceftriaxon-resistant Bacillus subtilis by microdilution method; assay type: functional
Enterococcus faecalis [8] = assay: Antibacterial activity against cephalosporins and beta-lactam-resistant Enterococcus faecalis by microdilution method; assay type: functional
Bacillus subtilis [9] = assay: Antibacterial activity against Bacillus subtilis ATCC 6633 by microdilution method; assay type: functional
Enterococcus faecalis [10] = assay: Antibacterial activity against Enterococcus faecalis ATCC 29212 by microdilution method; assay type: functional
Staphylococcus aureus [11] = assay: Antibacterial activity against oxacillin, gentamicin, aztreonam, trimethoprim-sulfamethoxazole-resistant Staphylococcus aureus by microdilution method; assay type: functional
Staphylococcus aureus [12] = assay: Antibacterial activity against Staphylococcus aureus ATCC 25923 by microdilution method; assay type: functional
Acinetobacter baumannii [13] = assay: Antibacterial activity against trimethoprim-sulfamethoxazole, cefepime-resistant Acinetobacter baumannii by microdilution method; assay type: functional
Acinetobacter baumannii [14] = assay: Antibacterial activity against Acinetobacter baumannii RSKK 02026 by microdilution method; assay type: functional
Klebsiella pneumoniae [15] = assay: Antibacterial activity against ESbetaL positive trimethoprim-sulfamethoxazole, amoxicillin clavulonat, cefriaxon, cephepim, aztreonam-resistant Klebsiella pneumoniae by microdilution method; assay type: functional
Klebsiella pneumoniae [16] = assay: Antibacterial activity against Klebsiella pneumoniae RSKK 574 by microdilution method; assay type: functional
Proteus mirabilis [17] = assay: Antibacterial activity against Proteus mirabilis ATCC 7002 by microdilution method; assay type: functional
Proteus mirabilis [18] = assay: Antibacterial activity against ESbetaL positive rimethoprim-sulfamethoxazole, cefepime, tazobactam-resistant Proteus mirabilis by microdilution method; assay type: functional
Pseudomonas aeruginosa [19] = assay: Antibacterial activity against trimethoprim-sulfamethoxazole, tazobactam-resistant Pseudomonas aeruginosa by microdilution method; assay type: functional
Pseudomonas aeruginosa [20] = assay: Antibacterial activity against Pseudomonas aeruginosa ATCC 10145 by microdilution method; assay type: functional
Escherichia coli [21] = assay: Antibacterial activity against ESbetaL positive trimethoprim-sulfamethoxazole, cefepime, tazobactam-resistant Escherichia coli isolate by microdilution method; assay type: functional
Escherichia coli [22] = assay: Antibacterial activity against Escherichia coli ATCC 35218 by microdilution method; assay type: functional

Row | Compound | Activity (Human respirovirus 3 [1]) | Activity (Human respirovirus 3 [2]) | Activity (Human alphaherpesvirus 1 [4]) | Activity (Human alphaherpesvirus 1 [5]) | MIC (Candida albicans) | MIC (Bacillus subtilis [7]) | MIC (Enterococcus faecalis [8]) | MIC (Bacillus subtilis [9]) | MIC (Enterococcus faecalis [10]) | MIC (Staphylococcus aureus [11]) | MIC (Staphylococcus aureus [12]) | MIC (Acinetobacter baumannii [13]) | MIC (Acinetobacter baumannii [14]) | MIC (Klebsiella pneumoniae [15]) | MIC (Klebsiella pneumoniae [16]) | MIC (Proteus mirabilis [17]) | MIC (Proteus mirabilis [18]) | MIC (Pseudomonas aeruginosa [19]) | MIC (Pseudomonas aeruginosa [20]) | MIC (Escherichia coli [21]) | also measured
1 | O=c1cc(CCl)oc(CN2CCN(c3ccc(Cl)cc3)CC2)c1O | 0.025 µg/mL | 0.4 µg/mL | 0.1 µg/mL | 0.4 µg/mL | 16 µg/mL (≈ 43.3 µM) | > 128 µg/mL | > 128 µg/mL | 16 µg/mL (≈ 43.3 µM) | 8 µg/mL (≈ 21.7 µM) | > 128 µg/mL | 8 µg/mL (≈ 21.7 µM) | > 128 µg/mL | 64 µg/mL (≈ 173 µM) | > 128 µg/mL | 64 µg/mL (≈ 173 µM) | 64 µg/mL (≈ 173 µM) | > 128 µg/mL | > 128 µg/mL | 64 µg/mL (≈ 173 µM) | > 128 µg/mL | MNTC [3]: 0.4 µg/mL; MNTC [6]: 1.6 µg/mL; MIC (Candida parapsilosis; Lodderomyces parapsilosis): 16 µg/mL (≈ 43.3 µM); MIC (Escherichia coli [22]): 64 µg/mL (≈ 173 µM)
2 | C[C@H]1COc2c(N3CCN(C)CC3)c(F)cc3c(=O)c(C(=O)O)cn1c23.C[C@H]1COc2c(N3CCN(C)CC3)c(F)cc3c(=O)c(C(=O)O)cn1c23.O [LEVOFLOXACIN] |  |  |  |  | inactive | inactive | 32 µg/mL | inactive | 0.5 µg/mL | 128 µg/mL | 0.25 µg/mL | 64 µg/mL | 0.12 µg/mL |  | < 0.12 µg/mL | < 0.12 µg/mL | 1 µg/mL |  |  |  | MIC (Candida parapsilosis): inactive
3 | O=c1cc(CCl)oc(CN2CCN(c3cccc(Cl)c3)CC2)c1O | 0.025 µg/mL | 0.8 µg/mL | 0.1 µg/mL | 0.8 µg/mL | 16 µg/mL (≈ 43.3 µM) | 32 µg/mL (≈ 86.7 µM) | 128 µg/mL (≈ 347 µM) | 16 µg/mL (≈ 43.3 µM) | 8 µg/mL (≈ 21.7 µM) | 128 µg/mL (≈ 347 µM) | 8 µg/mL (≈ 21.7 µM) | 64 µg/mL (≈ 173 µM) | 32 µg/mL (≈ 86.7 µM) | 64 µg/mL (≈ 173 µM) | 32 µg/mL (≈ 86.7 µM) | 32 µg/mL (≈ 86.7 µM) | 64 µg/mL | 64 µg/mL | 32 µg/mL (≈ 86.7 µM) | 64 µg/mL | MNTC [3]: 0.8 µg/mL; MNTC [6]: 1.6 µg/mL; MIC (Candida parapsilosis; Lodderomyces parapsilosis): 16 µg/mL (≈ 43.3 µM); MIC (Escherichia coli [22]): 32 µg/mL (≈ 86.7 µM)
4 | O=c1cc(CCl)oc(CN2CCN(c3ccccc3Cl)CC2)c1O | 0.2 µg/mL | 0.4 µg/mL | 0.1 µg/mL | 0.4 µg/mL | 16 µg/mL (≈ 43.3 µM) | > 128 µg/mL | > 128 µg/mL | 16 µg/mL (≈ 43.3 µM) | 8 µg/mL (≈ 21.7 µM) | > 128 µg/mL | 8 µg/mL (≈ 21.7 µM) | > 128 µg/mL | 64 µg/mL (≈ 173 µM) | > 128 µg/mL | 64 µg/mL (≈ 173 µM) | 64 µg/mL (≈ 173 µM) | > 128 µg/mL | > 128 µg/mL | 64 µg/mL (≈ 173 µM) | > 128 µg/mL | MNTC [3]: 0.4 µg/mL; MNTC [6]: 1.6 µg/mL; MIC (Candida parapsilosis; Lodderomyces parapsilosis): 16 µg/mL (≈ 43.3 µM); MIC (Escherichia coli [22]): 64 µg/mL (≈ 173 µM)
5 | GENTAMICIN |  |  |  |  | inactive | inactive | inactive | inactive | inactive | inactive | inactive | inactive | inactive | inactive | inactive | inactive | inactive | inactive | inactive | inactive | MIC (Candida parapsilosis): inactive; MIC (Escherichia coli [22]): inactive
6 | CCOC(=O)C1=C[C@@H](OC(CC)CC)[C@H](NC(C)=O)[C@@H](N)C1 [OSELTAMIVIR] | <0.012 µg/mL | 1.6 µg/mL |  |  |  |  |  |  |  |  |  |  |  |  |  |  |  |  |  |  | 
7 | Nc1nc2c(ncn2COCCO)c(=O)[nH]1 [ACYCLOVIR] |  |  | <0.012 µg/mL | 1.6 µg/mL |  |  |  |  |  |  |  |  |  |  |  |  |  |  |  |  | 
